Test results as given in PubChem BioAssay (NCI).
“And” between values parts separate entries of the source, which are not always exact repeats. Equal entries are not always repeated.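 1) Cells in 96-well plates. 2) Compound, 48 h, 5 concentrations. 3) Linear interpolation between surrounding doses. 4) Unreached endpoint = highest concentration. Abbreviation: GI50, concentration required for 50% inhibition of growth. TGI is the concentration that stops growth completely.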

Key:
Test in all cases: growth of human tumour cells (NCI), 48 h
MCF7 breast = tested on: MCF7 breast
NCI-H522 lung = tested on: NCI-H522 lung
UACC-62 melanoma = tested on: UACC-62 melanoma
HT29 colon = tested on: HT29 colon
NCI/ADR-RES ovarian = tested on: NCI/ADR-RES ovarian
K-562 leukemia = tested on: K-562 leukemia
OVCAR-3 ovarian = tested on: OVCAR-3 ovarian
SN12C renal = tested on: SN12C renal
OVCAR-5 ovarian = tested on: OVCAR-5 ovarian
MOLT-4 leukemia = tested on: MOLT-4 leukemia

SMILES	GI50 (MCF7 breast) [µM]	TGI (MCF7 breast)	GI50 (NCI-H522 lung) [µM]	TGI (NCI-H522 lung) [µM]	GI50 (UACC-62 melanoma) [µM]	TGI (UACC-62 melanoma)	GI50 (HT29 colon) [µM]	TGI (HT29 colon)	GI50 (NCI/ADR-RES ovarian) [µM]	TGI (NCI/ADR-RES ovarian)	GI50 (K-562 leukemia) [µM]	TGI (K-562 leukemia)	GI50 (OVCAR-3 ovarian) [µM]	TGI (OVCAR-3 ovarian)	GI50 (SN12C renal) [µM]	TGI (SN12C renal)	GI50 (OVCAR-5 ovarian) [µM]	TGI (OVCAR-5 ovarian)	GI50 (MOLT-4 leukemia) [µM]	TGI (MOLT-4 leukemia) [µM]
COC(=O)CCCCC(=O)c1c(C)[nH]c(/C=C2\N=C(c3ccc[nH]3)C=C2OC)c1C	0.723	2.09 µM	0.673	2.19	1.25	2.69 µM	0.198	1.41 µM	0.504	1.91 µM	0.403	1.77 µM	0.88	2.24 µM	1.1	2.47 µM	0.87	2.38 µM	0.103	1.74
CSc1nc2sc3c(c2c(=O)n1-c1ccc(C(C)C)cc1)CCC(=O)C3	3.14	10.6 µM	1.96	3.72	1.81	3.49 µM	2.97	6.7 µM	2.36	5.13 µM	3.02	9.04 µM	1.94	3.53 µM	2.45	6.02 µM	2.71	6.58 µM	2.64	6.71
c1ccc2c(c1)Nc1ccncc1S2	28.7	> 100 µM	11.8	65.7	16.5	56.9 µM	18.4	> 100 µM	21.4	> 100 µM	29.4	> 100 µM	18.6	57 µM	27.8	> 100 µM	19	> 100 µM	31.1	> 100
Oc1ccc(C(c2ccc(O)cc2)c2ccc(Br)cn2)cc1	0.264	0.732 µM	1.43	46.6	3.71	15.5 µM	5.99	98.7 µM	0.229	0.55 µM	14.4	> 100 µM	0.0963	0.411 µM	0.325	3.82 µM	13.7	> 71 µM	21.3	76.4
COc1ncnc(NS(=O)(=O)c2ccc(N=C3C(=O)N(CN4CCN(c5c(F)cc6c(=O)c(C(=O)O)cn(C7CC7)c6c5OC)CC4C)c4ccc(Br)cc43)cc2)c1OC (configuration not stated)	7.1	41.9 µM	31	> 50	2.61	11.3 µM	15.6	> 50 µM	7.06	> 50 µM	1.69	> 50 µM	7.52	40.7 µM	10.1	23.4 µM	5	> 50 µM	18.3	> 50
Cc1cc[n+]2c(c1)-c1cc(C)cc[n+]1CC2	–	> 100 µM	–	> 92.9	–	> 100 µM	–	> 100 µM	–	> 100 µM	–	> 100 µM	–	> 100 µM	–	> 100 µM	–	> 100 µM	–	> 100
Cn1cc(C2=C(c3cccc(OC[C@@H](O)CO)c3)C(=O)NC2=O)c2ccccc21	2.07	> 25 µM	24.8	> 25	> 25	> 25 µM	> 25	> 25 µM	> 25	> 25 µM	17.3	> 25 µM	11.2	> 25 µM	> 23	> 25 µM	> 25	> 25 µM	16.1	> 25
Cc1cc(C#Cc2ccc(C(C)(C)C)cc2)ccc1-n1c(/C=C/c2ccc(O)cc2O)nc2ccccc2c1=O	2.39	9.06 µM	1.83	5.5	3.52	13.5 µM	2.08	5.27 µM	3.17	13.4 µM	3.28	14.1 µM	3.23	12.5 µM	1.88	4.13 µM	4.25	16.4 µM	2.45	10.2
Cc1cc(N=Nc2ccccc2C)ccc1N	16.5	36.2 µM and 43.6 µM	6.94	22.9	–	25.1 µM and 30.6 µM	–	33.3 µM and 38.2 µM	13.7	25 µM and 43.2 µM	12.8	32.8 µM and > 100 µM	–	21.8 µM and 23.7 µM	2.86	27.4 µM and 16.3 µM	15	41.3 µM and 37.6 µM	0.967	> 100
Cc1ccc(-c2nc([P+](c3ccccc3)(c3ccccc3)c3ccccc3)c(S(=O)(=O)c3ccc(C)cc3)o2)cc1	1.52	3.83 µM	1.6	3.67	1.53	2.89 µM	1.7	4.17 µM	2.94	18 µM	0.312	3.22 µM	0.755	2.07 µM	1.06	2.34 µM	1.58	3.18 µM	1.06	4.63
C[C@]12CC[C@@H]3c4cc(OC(F)F)c(OS(N)(=O)=O)cc4CC[C@H]3[C@@H]1CC[C@@H]2O	0.39	20.8 µM	0.274	14.8	0.299	16.7 µM	0.371	13.9 µM	0.601	16.7 µM	0.364	> 100 µM	0.39	11.1 µM	0.608	19.1 µM	1.77	> 62.8 µM	0.641	> 64.4
COc1ccc(-c2nc(/C=C3\SC(=NCc4ccccc4)NC3=O)c3ccccn23)cc1	1.55	3.39 µM	0.79	7.16	1.55	3.8 µM	0.818	2.17 µM	1.39	5.76 µM	2.76	> 100 µM	1.04	2.46 µM	1.68	4.63 µM	1.5	2.45 µM	2.72	> 100
c1ccc2cc(-c3n(Cc4ccc5ccccc5n4)c4ccccc4[n+]3Cc3ccc4ccccc4n3)ccc2c1	0.277	1.14 µM	0.321	1.25	0.339	1.32 µM	0.256	1.19 µM	6.6	26.4 µM	0.16	1.39 µM	0.314	1.39 µM	0.298	1.11 µM	0.368	1.47 µM	0.348	1.4
